Experimental data reported in publication PMC9270327 (Communications Biology, 2022).
Values joined by “and” are separate entries in the source; they are usually repeats but may differ in a detail not shown here. Identical values can stand only once. Counter-ions that a name gives are not always drawn. Like-named read-outs stand apart in the source and are kept apart here.

Assays:
[1] = molecular target: T1, TMPRSS2 expressed in HEK293T cells (Homo sapiens, UniProt O15393); experiment: Inhibition of cellular TMPRSS2 activity on HEK293T cells transiently expressing TMPRSS2; type: cell-based; conditions: 2 h, corrected for mock-transfected cells
T1 construct: host or cells: HEK293T (ATCC)
Method: In total, 10,000 Caco-2 cells (ATCC) in 100 µL EMEM medium supplemented with 10% FBS, 100 U/mL penicillin, […] streptomycin, and 2 mM glutamine (all Invitrogen, Germany) were seeded per well in a 96-well plate and incubated at 37 °C for 4 days until full confluency of the cells. The cells were washed two times with PBS and EMEM medium without FBS was added. […] The fluorescence intensity was measured as described above. In all, 20,000 HEK293T cells (ATCC) were seeded in 100 µL DMEM supplemented with 10% FBS, 100 U/mL penicillin, […] streptomycin, and 2 mM glutamine. […] […] […] Fluorescence intensity was measured after 2 h at 37 °C as described above.

[2] = system: lentiviral pseudoparticles carrying SARS-CoV-2 Omicron BA.1 (B.1.1.529) spike, Caco-2 cells; type: cell-based
TMPRSS2 = TMPRSS2 (Homo sapiens, UniProt O15393)
Chain of TMPRSS2 (O15393 whole entry): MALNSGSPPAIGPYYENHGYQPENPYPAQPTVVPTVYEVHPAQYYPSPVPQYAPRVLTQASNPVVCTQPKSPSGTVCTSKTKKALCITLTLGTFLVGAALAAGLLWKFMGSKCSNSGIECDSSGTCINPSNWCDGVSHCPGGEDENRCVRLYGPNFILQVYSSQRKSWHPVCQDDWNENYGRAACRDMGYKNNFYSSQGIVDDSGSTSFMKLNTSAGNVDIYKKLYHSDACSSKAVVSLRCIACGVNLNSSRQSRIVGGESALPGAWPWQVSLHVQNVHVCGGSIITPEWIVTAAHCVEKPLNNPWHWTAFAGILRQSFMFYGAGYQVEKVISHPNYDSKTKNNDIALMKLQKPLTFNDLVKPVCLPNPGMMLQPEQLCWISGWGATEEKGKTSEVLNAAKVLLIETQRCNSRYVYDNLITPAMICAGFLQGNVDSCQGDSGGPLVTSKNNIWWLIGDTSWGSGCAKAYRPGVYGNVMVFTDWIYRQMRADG
Method: Negative ctrl: no inhibitor, positive ctrl: inhibitor in assay buffer. d Inhibitory constants Ki as determined from (a–c). Shown are the means ± SD of n = 1 experiment performed in triplicates. No inh. no inhibition.
The activity of the compounds against the recombinant human enzymes was determined in enzyme inhibition assays. […] The measurements were performed on a Tecan infinite® M1000 and the fluorescence intensity was measured by exciting the AMC fluorophore at 380 nm wavelength and recording emission at 460 nm wavelength. […] Fluorescence intensities and absorption were measured every 2 min for 2 h or as endpoint after 2 h. […] To determine the IC50 values, the concentration-response data were plotted with the program GraphPad prism version 8.4.2 (San Diego, California) and a nonlinear regression fit with the equation [Inhibitor] vs. normalized response was applied. The inhibitory constant Ki was calculated from the IC50 values using the Cheng–Prusoff equation (Ki = IC50/[S]/KM) for competitive reversible inhibitors[66].
The stability of the inhibitors was measured according to a modified procedure from ref. [67]. […] At indicated timepoints, 100 µL samples were taken and mixed with 200 µL of ethanol to precipitate proteins. […] The supernatant was aspirated and analyzed using analytical HPLC. The residual inhibitory constants Ki after incubation was assessed by mixing serial dilutions of the inhibitor with recombinant TMPRSS2 as described above.

T1 sequence (O15393 whole entry): as above

## CN(C)C(=O)COC(=O)Cc1ccc(OC(=O)c2ccc(NC(=N)N)cc2)cc1 [CM, camostat mesylate, reference compound]
[1]; 0.5 nM
  normalized fluorescence intensity, HEK293T TMPRSS2, Mean (Fig. 4b): 47.42
[1]; 5 nM
  normalized fluorescence intensity, HEK293T TMPRSS2, Mean (Fig. 4b): 43.185
[1]; 50 nM
  normalized fluorescence intensity, HEK293T TMPRSS2, Mean (Fig. 4b): 9.45
[1]; 500 nM
  normalized fluorescence intensity, HEK293T TMPRSS2, Mean (Fig. 4b): 8.435
[1]; 5000 nM
  normalized fluorescence intensity, HEK293T TMPRSS2, Mean (Fig. 4b): 0.32
[1]; 50000 nM
  normalized fluorescence intensity, HEK293T TMPRSS2, Mean (Fig. 4b): -3.52
[2]
  SARS-CoV-2 spike driven entry, Mean (0 nM = 100): 47.6902 and 69.3145 and 95.2747
[2]; Caco-2 cells, luciferase 2 days post transduction, read-out: IC50 pseudotyped lentivirus Omicron BA.1
  IC50: 0.0776 µM
[2]; Fig. 5e, compound 400 nM, […]
  SARS-CoV-2 spike driven entry, Mean (0 nM = 100): 26.7078
[2]; Fig. 5e, compound 2000 nM, […]
  SARS-CoV-2 spike driven entry, Mean (0 nM = 100): 11.5722
[2]; Fig. 5e, compound 10000 nM, […]
  SARS-CoV-2 spike driven entry, Mean (0 nM = 100): 6.102
[2]; Fig. 5e, compound 50000 nM, […]
  SARS-CoV-2 spike driven entry, Mean (0 nM = 100): 4.574
TMPRSS2; human serum / plasma, up to 10 days
  residual inhibitory activity against TMPRSS2 after incubation in body fluids: inactive
TMPRSS2; immediately after addition to human serum
  reduction of activity against TMPRSS2 upon addition to serum: around 60 fold
TMPRSS2; inhibitor 0.0167 nM, 0 min in serum
  TMPRSS2 activity, Mean (0 nM = 100): 97.0909
TMPRSS2; inhibitor 0.0167 nM, 30 min in serum
  TMPRSS2 activity, Mean (0 nM = 100): 98.7509
TMPRSS2; inhibitor 0.0167 nM, 60 min in serum
  TMPRSS2 activity, Mean (0 nM = 100): 96.1122
TMPRSS2; inhibitor 0.0167 nM, 120 min in serum
  TMPRSS2 activity, Mean (0 nM = 100): 96.1122
TMPRSS2; inhibitor 0.0167 nM, 24 h in serum
  TMPRSS2 activity, Mean (0 nM = 100): 109.9729
TMPRSS2; inhibitor 0.0167 nM, 10 d in serum
  TMPRSS2 activity, Mean (0 nM = 100): 104.3134
TMPRSS2; inhibitor 0.0167 nM, positive ctrl
  TMPRSS2 activity, Mean (0 nM = 100): 91.4692
TMPRSS2; inhibitor 0.167 nM, 0 min in serum
  TMPRSS2 activity, Mean (0 nM = 100): 95.7227
TMPRSS2; inhibitor 0.167 nM, 30 min in serum
  TMPRSS2 activity, Mean (0 nM = 100): 96.8742
TMPRSS2; inhibitor 0.167 nM, 60 min in serum
  TMPRSS2 activity, Mean (0 nM = 100): 95.2722
TMPRSS2; inhibitor 0.167 nM, 120 min in serum
  TMPRSS2 activity, Mean (0 nM = 100): 95.2722
TMPRSS2; inhibitor 0.167 nM, 24 h in serum
  TMPRSS2 activity, Mean (0 nM = 100): 109.0078
TMPRSS2; inhibitor 0.167 nM, 10 d in serum
  TMPRSS2 activity, Mean (0 nM = 100): 107.9350
TMPRSS2; inhibitor 0.167 nM, positive ctrl
  TMPRSS2 activity, Mean (0 nM = 100): 67.2760
TMPRSS2; inhibitor 1.665 nM, 0 min in serum
  TMPRSS2 activity, Mean (0 nM = 100): 91.6733
TMPRSS2; inhibitor 1.665 nM, 30 min in serum
  TMPRSS2 activity, Mean (0 nM = 100): 104.2530
TMPRSS2; inhibitor 1.665 nM, 60 min in serum
  TMPRSS2 activity, Mean (0 nM = 100): 90.9967
TMPRSS2; inhibitor 1.665 nM, 120 min in serum
  TMPRSS2 activity, Mean (0 nM = 100): 90.9967
TMPRSS2; inhibitor 1.665 nM, 24 h in serum
  TMPRSS2 activity, Mean (0 nM = 100): 110.5140
TMPRSS2; inhibitor 1.665 nM, 10 d in serum
  TMPRSS2 activity, Mean (0 nM = 100): 105.0630
TMPRSS2; inhibitor 1.665 nM, positive ctrl
  TMPRSS2 activity, Mean (0 nM = 100): 16.5425
TMPRSS2; inhibitor 16.65 nM, 0 min in serum
  TMPRSS2 activity, Mean (0 nM = 100): 58.3113
TMPRSS2; inhibitor 16.65 nM, 30 min in serum
  TMPRSS2 activity, Mean (0 nM = 100): 66.2869
TMPRSS2; inhibitor 16.65 nM, 60 min in serum
  TMPRSS2 activity, Mean (0 nM = 100): 73.7709
TMPRSS2; inhibitor 16.65 nM, 120 min in serum
  TMPRSS2 activity, Mean (0 nM = 100): 73.7709
TMPRSS2; inhibitor 16.65 nM, 24 h in serum
  TMPRSS2 activity, Mean (0 nM = 100): 114.2941
TMPRSS2; inhibitor 16.65 nM, 10 d in serum
  TMPRSS2 activity, Mean (0 nM = 100): 105.5411
TMPRSS2; inhibitor 16.65 nM, positive ctrl
  TMPRSS2 activity, Mean (0 nM = 100): 3.2273
TMPRSS2; inhibitor 166.5 nM, 0 min in serum
  TMPRSS2 activity, Mean (0 nM = 100): 7.4453
TMPRSS2; inhibitor 166.5 nM, 30 min in serum
  TMPRSS2 activity, Mean (0 nM = 100): 7.7321
TMPRSS2; inhibitor 166.5 nM, 60 min in serum
  TMPRSS2 activity, Mean (0 nM = 100): 7.7056
TMPRSS2; inhibitor 166.5 nM, 120 min in serum
  TMPRSS2 activity, Mean (0 nM = 100): 7.7056
TMPRSS2; inhibitor 166.5 nM, 24 h in serum
  TMPRSS2 activity, Mean (0 nM = 100): 43.5256
TMPRSS2; inhibitor 166.5 nM, 10 d in serum
  TMPRSS2 activity, Mean (0 nM = 100): 104.8964
TMPRSS2; inhibitor 166.5 nM, positive ctrl
  TMPRSS2 activity, Mean (0 nM = 100): 1.7660
TMPRSS2; inhibitor 1665 nM, 0 min in serum
  TMPRSS2 activity, Mean (0 nM = 100): 2.9461
TMPRSS2; inhibitor 1665 nM, 30 min in serum
  TMPRSS2 activity, Mean (0 nM = 100): 4.0032
TMPRSS2; inhibitor 1665 nM, 60 min in serum
  TMPRSS2 activity, Mean (0 nM = 100): 3.9955
TMPRSS2; inhibitor 1665 nM, 120 min in serum
  TMPRSS2 activity, Mean (0 nM = 100): 3.9955
